Assay results: PubChem BioAssay (NCI)
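Method: 48-hour compound exposure of cells in 96-well plates, five concentrations, linear interpolation of endpoints. TGI: concentration producing complete growth inhibition.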

Tests used:
Experiment in all cases: inhibition of tumour cell growth, NCI panel, 48 h
786-0 renal = test system: 786-0 renal
A498 renal = test system: A498 renal
A549 NSCLC = test system: A549 NSCLC
ACHN renal = test system: ACHN renal
BT-549 breast = test system: BT-549 breast
CAKI-1 renal = test system: CAKI-1 renal
COLO 205 colon = test system: COLO 205 colon
DU-145 prostate = test system: DU-145 prostate
EKVX NSCLC = test system: EKVX NSCLC
HCC-2998 colon = test system: HCC-2998 colon
HCT-116 colon = test system: HCT-116 colon
HCT-15 colon = test system: HCT-15 colon
HL-60(TB) leukemia = test system: HL-60(TB) leukemia
HOP-62 NSCLC = test system: HOP-62 NSCLC
HOP-92 NSCLC = test system: HOP-92 NSCLC
HS 578T breast = test system: HS 578T breast
HT29 colon = test system: HT29 colon
IGROV1 ovarian = test system: IGROV1 ovarian
K-562 leukemia = test system: K-562 leukemia
KM12 colon = test system: KM12 colon
LOX IMVI melanoma = test system: LOX IMVI melanoma
M14 melanoma = test system: M14 melanoma
MALME-3M melanoma = test system: MALME-3M melanoma
MCF7 breast = test system: MCF7 breast
MDA-MB-231 breast = test system: MDA-MB-231 breast
MDA-MB-435 = test system: MDA-MB-435
MDA-N = test system: MDA-N
MOLT-4 leukemia = test system: MOLT-4 leukemia
NCI-H226 lung = test system: NCI-H226 lung
NCI-H23 lung = test system: NCI-H23 lung
NCI-H460 lung = test system: NCI-H460 lung
NCI-H522 lung = test system: NCI-H522 lung
NCI/ADR-RES ovarian = test system: NCI/ADR-RES ovarian
OVCAR-3 ovarian = test system: OVCAR-3 ovarian
OVCAR-4 ovarian = test system: OVCAR-4 ovarian
OVCAR-5 ovarian = test system: OVCAR-5 ovarian
OVCAR-8 ovarian = test system: OVCAR-8 ovarian
PC-3 prostate = test system: PC-3 prostate
RPMI-8226 leukemia = test system: RPMI-8226 leukemia
RXF 393 renal = test system: RXF 393 renal
SF-268 CNS = test system: SF-268 CNS
SF-295 CNS = test system: SF-295 CNS
SF-539 CNS = test system: SF-539 CNS
SK-MEL-2 melanoma = test system: SK-MEL-2 melanoma
SK-MEL-28 melanoma = test system: SK-MEL-28 melanoma
SK-MEL-5 melanoma = test system: SK-MEL-5 melanoma
SK-OV-3 ovarian = test system: SK-OV-3 ovarian
SN12C renal = test system: SN12C renal
SNB-19 CNS = test system: SNB-19 CNS
SNB-75 CNS = test system: SNB-75 CNS
SR leukemia = test system: SR leukemia
SW-620 colon = test system: SW-620 colon
T-47D breast = test system: T-47D breast
TK-10 renal = test system: TK-10 renal
U251 CNS = test system: U251 CNS
UACC-257 melanoma = test system: UACC-257 melanoma
UACC-62 melanoma = test system: UACC-62 melanoma
UO-31 renal = test system: UO-31 renal
CCRF-CEM leukemia = test system: CCRF-CEM leukemia

Compound: CC(C)=CCC[C@@H](C)C1=C(O)C(N[C@H](C)c2ccccc2)=C(C)C(=O)C1=O
- TGI (786-0 renal): 20.7 µM
- TGI (A498 renal): 32 µM
- TGI (A549 NSCLC): 14.7 µM
- TGI (ACHN renal): 17.1 µM
- TGI (BT-549 breast): 67 µM
- TGI (CAKI-1 renal): 46.9 µM
- TGI (COLO 205 colon): 20 µM
- TGI (DU-145 prostate): 38.9 µM
- TGI (EKVX NSCLC): > 100 µM
- TGI (HCC-2998 colon): 31.3 µM
- TGI (HCT-116 colon): 20.4 µM
- TGI (HCT-15 colon): > 63.2 µM
- TGI (HL-60(TB) leukemia): 10.8 µM
- TGI (HOP-62 NSCLC): 20 µM
- TGI (HOP-92 NSCLC): 35.6 µM
- TGI (HS 578T breast): 36.7 µM
- TGI (HT29 colon): 14.1 µM
- TGI (IGROV1 ovarian): > 36.2 µM
- TGI (K-562 leukemia): > 60.7 µM
- TGI (KM12 colon): > 46 µM
- TGI (LOX IMVI melanoma): 22.1 µM
- TGI (M14 melanoma): > 31.7 µM
- TGI (MALME-3M melanoma): 14.6 µM
- TGI (MCF7 breast): 17.9 µM
- TGI (MDA-MB-231 breast): 35.6 µM
- TGI (MDA-MB-435): > 62.3 µM
- TGI (MDA-N): 44.2 µM
- TGI (MOLT-4 leukemia): > 30.1 µM
- TGI (NCI-H226 lung): 21.1 µM
- TGI (NCI-H23 lung): 34.2 µM
- TGI (NCI-H460 lung): > 40 µM
- TGI (NCI-H522 lung): 8.67 µM
- TGI (NCI/ADR-RES ovarian): 4.23 µM
- TGI (OVCAR-3 ovarian): > 100 µM
- TGI (OVCAR-4 ovarian): > 60.1 µM
- TGI (OVCAR-5 ovarian): > 72.1 µM
- TGI (OVCAR-8 ovarian): > 24.1 µM
- TGI (PC-3 prostate): > 100 µM
- TGI (RPMI-8226 leukemia): 22.2 µM
- TGI (RXF 393 renal): 25 µM
- TGI (SF-268 CNS): > 64.3 µM
- TGI (SF-295 CNS): 16.9 µM
- TGI (SF-539 CNS): 10.2 µM
- TGI (SK-MEL-2 melanoma): 29.3 µM
- TGI (SK-MEL-28 melanoma): > 46.7 µM
- TGI (SK-MEL-5 melanoma): 13.1 µM
- TGI (SK-OV-3 ovarian): 45.4 µM
- TGI (SN12C renal): 53.2 µM
- TGI (SNB-19 CNS): > 100 µM
- TGI (SNB-75 CNS): > 56.4 µM
- TGI (SR leukemia): > 100 µM
- TGI (SW-620 colon): > 45.2 µM
- TGI (T-47D breast): 24.8 µM
- TGI (TK-10 renal): 26.3 µM
- TGI (U251 CNS): > 100 µM
- TGI (UACC-257 melanoma): 53.4 µM
- TGI (UACC-62 melanoma): 9.71 µM
- TGI (UO-31 renal): 38.9 µM

Compound: NCCCN(CCCCN(CCCN)CCCc1ccccc1)CCCc1ccccc1
- TGI (786-0 renal): 2.91 µM
- TGI (A498 renal): 32.8 µM
- TGI (A549 NSCLC): 9.49 µM
- TGI (ACHN renal): 9.24 µM
- TGI (BT-549 breast): 10.1 µM
- TGI (CAKI-1 renal): 4.94 µM
- TGI (CCRF-CEM leukemia): 7.83 µM
- TGI (COLO 205 colon): 3.18 µM
- TGI (DU-145 prostate): 23.8 µM
- TGI (EKVX NSCLC): 12.6 µM
- TGI (HCC-2998 colon): 2.99 µM
- TGI (HCT-116 colon): 3.02 µM
- TGI (HCT-15 colon): 4.24 µM
- TGI (HL-60(TB) leukemia): 7.44 µM
- TGI (HOP-62 NSCLC): 25.4 µM
- TGI (HOP-92 NSCLC): 24.1 µM
- TGI (HS 578T breast): 4.66 µM
- TGI (HT29 colon): 4.32 µM
- TGI (IGROV1 ovarian): 8.88 µM
- TGI (K-562 leukemia): 3.57 µM
- TGI (KM12 colon): 6.43 µM
- TGI (LOX IMVI melanoma): 6.38 µM
- TGI (M14 melanoma): 3.57 µM
- TGI (MCF7 breast): 3.56 µM
- TGI (MDA-MB-231 breast): 4.39 µM
- TGI (MDA-MB-435): 3.27 µM
- TGI (MDA-N): 3.23 µM
- TGI (MOLT-4 leukemia): 5.21 µM
- TGI (NCI-H226 lung): 38.8 µM
- TGI (NCI-H23 lung): 17.4 µM
- TGI (NCI-H460 lung): 2.72 µM
- TGI (NCI-H522 lung): 7.17 µM
- TGI (NCI/ADR-RES ovarian): 43.1 µM
- TGI (OVCAR-3 ovarian): 3.34 µM
- TGI (OVCAR-4 ovarian): 17.1 µM
- TGI (OVCAR-5 ovarian): 24.9 µM
- TGI (OVCAR-8 ovarian): 27 µM
- TGI (PC-3 prostate): 12.3 µM
- TGI (RPMI-8226 leukemia): 6.15 µM
- TGI (RXF 393 renal): 5.64 µM
- TGI (SF-268 CNS): 8.32 µM
- TGI (SF-295 CNS): 3.16 µM
- TGI (SF-539 CNS): 3.55 µM
- TGI (SK-MEL-2 melanoma): 3.25 µM
- TGI (SK-MEL-28 melanoma): 2.98 µM
- TGI (SK-MEL-5 melanoma): 3.36 µM
- TGI (SK-OV-3 ovarian): 14.1 µM
- TGI (SN12C renal): 16.9 µM
- TGI (SNB-19 CNS): 6.62 µM
- TGI (SNB-75 CNS): 5.04 µM
- TGI (SR leukemia): 7.19 µM
- TGI (SW-620 colon): 10.6 µM
- TGI (T-47D breast): 23.5 µM
- TGI (TK-10 renal): 25.9 µM
- TGI (U251 CNS): 4.19 µM
- TGI (UACC-257 melanoma): 3.45 µM
- TGI (UACC-62 melanoma): 3.28 µM
- TGI (UO-31 renal): 5.66 µM
